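Briefly, cells in 96-well plates were exposed to five compound concentrations for 48 h, and endpoints were estimated by linear interpolation. Here, GI50 denotes the concentration required for 50% inhibition of growth.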 Activity calls are given as the source filed them. Rule as the data show it: active = GI50 up to about 1.1 µM and inactive = higher.
Columns and labels:
Test in all cases: NCI anticancer screen, dose series, 48 h
K562 = system: K562
786-0 = system: 786-0
SF-268 = system: SF-268
SF-295 = system: SF-295
SNB-19 = system: SNB-19
MDA-N = system: MDA-N
NCI-H23 = system: NCI-H23
BT-549 = system: BT-549
UACC-62 = system: UACC-62
SR = system: SR
HCT-116 = system: HCT-116
TK-10 = system: TK-10
SNB-75 = system: SNB-75
DU-145 = system: DU-145
PC-3 = system: PC-3
CAKI-1 = system: CAKI-1
RPMI-8226 = system: RPMI-8226
U-251 = system: U-251
LOX IMVI = system: LOX IMVI

SMILES	GI50 (K562)	GI50 (786-0)	GI50 (SF-268)	GI50 (SF-295)	GI50 (SNB-19)	GI50 (MDA-N)	GI50 (NCI-H23)	GI50 (BT-549)	GI50 (UACC-62)	GI50 (SR)	GI50 (HCT-116)	GI50 (TK-10)	GI50 (SNB-75)	GI50 (DU-145)	GI50 (PC-3)	GI50 (CAKI-1)	GI50 (RPMI-8226)	GI50 (U-251)	GI50 (LOX IMVI)
CC12CCCC3(CC(=O)C(C)(C)C3C(=O)C1)C2 (stereo unspecified)	> 100 µM (inactive)	> 100 µM (inactive)	> 100 µM (inactive)	> 100 µM (inactive)	> 100 µM (inactive)	> 100 µM (inactive)	> 100 µM (inactive)	> 100 µM (inactive)	> 100 µM (inactive)	> 100 µM (inactive)	> 100 µM (inactive)	> 100 µM (inactive)	> 100 µM (inactive)	> 100 µM (inactive)	> 100 µM (inactive)	> 100 µM (inactive)	> 100 µM (inactive)	> 100 µM (inactive)	> 100 µM (inactive)
CN1CCN(CCCCN2c3ccccc3Sc3ccc(C(=O)c4ccccc4)cc32)CC1	1.48 µM (inactive)	1.58 µM (inactive)	2.23 µM (inactive)	1.8 µM (inactive)	1.91 µM (inactive)	1.55 µM (inactive)	1.85 µM (inactive)	1.65 µM (inactive)	1.26 µM (inactive)	1.41 µM (inactive)	1.82 µM (inactive)	1.67 µM (inactive)	1.26 µM (inactive)	2.29 µM (inactive)	1.5 µM (inactive)	1.44 µM (inactive)	1.79 µM (inactive)	1.69 µM (inactive)	1.46 µM (inactive)
COc1c(C)c(OC)c2c(c1O)[C@@H]1[C@@H]3Cc4c(OC)c(C)c(OC)c(O)c4[C@H](CNC(=O)c4cnc5ccccc5n4)N3[C@@H](C#N)[C@H](C2)N1C	0.000977 µM (active)	0.00412 µM (active)	0.00354 µM (active)	0.00296 µM (active)	0.00385 µM (active)	0.00138 µM (active)	0.00277 µM (active)	0.00132 µM (active)	0.00123 µM (active)	0.000182 µM (active)	0.00222 µM (active)	0.00771 µM (active)	0.00266 µM (active)	0.0026 µM (active)	0.00433 µM (active)	0.00536 µM (active)	0.000634 µM (active)	0.00135 µM (active)	0.00108 µM (active)
CNC(=O)OCC1=C(COC(=O)NC)CN(c2ccc(OC)cc2)C1	> 100 µM (inactive)	> 100 µM (inactive)	> 100 µM (inactive)	> 100 µM (inactive)	> 100 µM (inactive)	> 100 µM (inactive)	> 100 µM (inactive)	> 100 µM (inactive)	> 100 µM (inactive)	> 100 µM (inactive)	> 100 µM (inactive)	85.7 µM (inactive)	> 100 µM (inactive)	> 100 µM (inactive)	> 100 µM (inactive)	–	> 100 µM (inactive)	> 100 µM (inactive)	> 100 µM (inactive)
O=C(O)C1C2C=CC(O2)C1C(=O)NCc1cccnc1 (stereo unspecified)	> 100 µM (inactive)	> 100 µM (inactive)	> 100 µM (inactive)	> 100 µM (inactive)	> 100 µM (inactive)	> 100 µM (inactive)	> 100 µM (inactive)	> 100 µM (inactive)	> 100 µM (inactive)	> 100 µM (inactive)	> 100 µM (inactive)	> 100 µM (inactive)	> 100 µM (inactive)	> 100 µM (inactive)	> 100 µM (inactive)	> 100 µM (inactive)	> 100 µM (inactive)	> 100 µM (inactive)	> 100 µM (inactive)
CC(=O)Oc1ccc2cc(-c3ccccc3OC(C)=O)c(=O)oc2c1	38 µM (inactive)	25.6 µM (inactive)	19.1 µM (inactive)	50.4 µM (inactive)	46.9 µM (inactive)	49.5 µM (inactive)	31.6 µM (inactive)	4.17 µM (inactive)	–	7.69 µM (inactive)	66.5 µM (inactive)	–	11.7 µM (inactive)	21.7 µM (inactive)	> 100 µM (inactive)	–	28.8 µM (inactive)	34 µM (inactive)	64.9 µM (inactive)
CCC(=O)N1C(=O)C(CC)(CC)C(=O)N1C(=O)CC	> 100 µM (inactive)	> 100 µM (inactive)	> 100 µM (inactive)	> 100 µM (inactive)	> 100 µM (inactive)	> 100 µM (inactive)	> 100 µM (inactive)	> 100 µM (inactive)	> 100 µM (inactive)	> 100 µM (inactive)	> 100 µM (inactive)	> 100 µM (inactive)	> 100 µM (inactive)	> 100 µM (inactive)	> 100 µM (inactive)	> 100 µM (inactive)	> 100 µM (inactive)	> 100 µM (inactive)	–
Cc1ccc(C(=O)C#Cc2cn(C3CC(O)C(CO)O3)c(=O)[nH]c2=O)cc1 (stereo unspecified)	–	> 100 µM (inactive)	> 100 µM (inactive)	> 100 µM (inactive)	> 100 µM (inactive)	> 100 µM (inactive)	> 100 µM (inactive)	> 100 µM (inactive)	> 100 µM (inactive)	35.2 µM (inactive)	62.2 µM (inactive)	> 100 µM (inactive)	> 100 µM (inactive)	> 100 µM (inactive)	> 100 µM (inactive)	90.2 µM (inactive)	67.8 µM (inactive)	> 100 µM (inactive)	95.9 µM (inactive)

From ChEMBL document CHEMBL1201862, “PubChem BioAssay data set” (2004)
